A short description of data set [1]: Plasma timecourse of N-MTX following PO administration to rat. Conditions: for pharmacokinetic profile (e.g. oral bioavailability), N-MTX: oral dosing in rats, Cmax and/or persistence of exposure compared with N-MTX itself; for detectable levels of N-MTX: oral dosing in rats at the doses of Table 1.
Procedure: (§1) Plasma Timecourse of Peripheral Phenolic Opioid Antagonists Following PO Administration to Rat
(§2) Oral dosing: The test compounds were dissolved in saline and dosed via oral gavage into jugular vein cannulated male Sprague-Dawley rats. N-MTX and N-MNLX, each at 20 mg/kg, were used as positive controls and the test compounds were dosed at the doses indicated in Tables 1 and 2. At specified time points, blood samples were withdrawn, quenched into methanol, centrifuged at 14000 rpm @ 4° C., and stored at −80° C. until analysis. Samples were quantified via LC/MS/MS using an ABI 3000 triple-quad mass spectrometer.
Data set [2] is described as follows: Plasma timecourse of N-MNLX following PO administration to rat. In kind it is in vivo, male Sprague-Dawley rats. The conditions noted are these: oral dosing in rats; Cmax and/or persistence of exposure compared with N-MNLX itself.
Procedure: as §1, §2
For data set [3] the following is noted: rat, in vivo.
Procedure: as §1, §2

16 molecules from patent publication US20110105381A2, “Prodrugs of Peripheral Phenolic Opioid Antagonists” (PharmacoFore, Inc., priority 2007, published 2011) can be followed below.

Where a name gives a salt, the structure may show the parent alone. Read-outs that look alike come from different tables or passages of the source.

Consider `CN(CCNC(=O)[C@H](Cc1ccccc1)NC(=O)CN)C(=O)Oc1ccc2c3c1O[C@H]1C(=O)CC[C@@]4(O)C(C2)[N@+](C)(CC2CC2)CC[C@]314` [Example 13, (R)—N-Methylnaltrexone 3-(N-methyl-N-(2-N-glycinylphenylalaninylamino))-ethylcarbamate], for which the “pharmacokinetic profile (e.g. oral bioavailability), N-MTX” value (shortened to “pharmacokinetic profile … N-MTX”) in data set [1] is recorded as “improved pharmacokinetic profile”.

Consider `CN(CCNC(=O)[C@@H](N)CC(N)=O)C(=O)Oc1ccc2c3c1O[C@H]1C(=O)CC[C@@]4(O)C(C2)[N@+](C)(CC2CC2)CC[C@]314` [Example 5, (R)—N-Methylnaltrexone 3-(N-methyl-N-(2-N-asparaginylamino))ethylcarbamate], for which the “detectable levels of N-MTX” value in data set [1] is listed as “did not afford detectable levels of N-MTX”.

With `C=CC[N+]1(C)CC[C@]23c4c5ccc(O)c4O[C@H]2C(=O)CC[C@@]3(O)[C@H]1C5.[Br-]` (stereo partly shown) [N-MNLX, N-methylnaloxone, reference compound], the “pharmacokinetic profile (e.g. oral bioavailability), N-MNLX” value in data set [2] is given as “poor pharmacokinetic profiles”.

For the molecule `CN(CCNC(=O)[C@H](CCCNC(=N)N)NC(=O)CN)C(=O)Oc1ccc2c3c1O[C@H]1C(=O)CC[C@@]4(O)C(C2)[N@+](C)(CC2CC2)CC[C@]314` [Example 10, (R)—N-Methylnaltrexone 3-(N-methyl-N-(2-N-glycinylarginylamino))ethylcarbamate], the “pharmacokinetic profile … N-MTX” value in data set [1] was “improved pharmacokinetic profile”.

Take `CN(CCNC(=O)[C@@H](N)CCCNC(=N)N)C(=O)Oc1ccc2c3c1O[C@H]1C(=O)CC[C@@]4(O)C(C2)[N@+](C)(CC2CC2)CC[C@]314` [Example 3, (R)—N-Methylnaltrexone 3-(N-methyl-N-(2-arginylamino))ethylcarbamate]: in data set [1], the “pharmacokinetic profile … N-MTX” value was “improved pharmacokinetic profile”.

For `CN(CCN)C(=O)Oc1ccc2c3c1O[C@H]1C(=O)CC[C@@]4(O)[C@@H](C2)[N+](C)(CC2CC2)CC[C@]314.Cl.[Cl-]` (stereo partly drawn) [Example 1, (R)—N-Methylnaltrexone 3-(N-methyl-N-(2-aminoethyl))carbamate], the “pharmacokinetic profile … N-MTX” value in data set [3] was “improved pharmacokinetic profile”.

For `CN(CCNC(=O)[C@@H](N)Cc1ccc(O)cc1)C(=O)Oc1ccc2c3c1O[C@H]1C(=O)CC[C@@]4(O)C(C2)[N@+](C)(CC2CC2)CC[C@]314` [Example 7, (R)—N-Methylnaltrexone 3-(N-methyl-N-(2-N-tyrosinylamino))ethylcarbamate], the “detectable levels of N-MTX” value in data set [1] is reported as “did not afford detectable levels of N-MTX”.

Take `CC(=O)N[C@@H](CCCNC(=N)N)C(=O)NCCN(C)C(=O)Oc1ccc2c3c1O[C@H]1C(=O)CC[C@@]4(O)C(C2)[N@+](C)(CC2CC2)CC[C@]314` [Example 4, (R)—N-Methylnaltrexone 3-(N-methyl-N-(2-N-acetylarginylamino))ethylcarbamate]: the “detectable levels of N-MTX” value in data set [1] is listed as “did not afford detectable levels of N-MTX”.

As for `C[C@H](N)C(=O)NCCN(C)C(=O)Oc1ccc2c3c1O[C@H]1C(=O)CC[C@@]4(O)C(C2)[N@+](C)(CC2CC2)CC[C@]314` [Example 8, (R)—N-Methylnaltrexone 3-(N-methyl-N-(2-N-alaninylamino))ethylcarbamate], in data set [1], the “detectable levels of N-MTX” value was “did not afford detectable levels of N-MTX”.

Turning to `CC(C)C[C@H](N)C(=O)NCCN(C)C(=O)Oc1ccc2c3c1O[C@H]1C(=O)CC[C@@]4(O)C(C2)[N@+](C)(CC2CC2)CC[C@]314` [Example 2, (R)—N-Methylnaltrexone 3-(N-methyl-N-(2-leucinylamino))ethylcarbamate Hydrochloride], the “pharmacokinetic profile … N-MTX” value in data set [1] is “improved pharmacokinetic profile”.

As to `CN(CCNC(=O)[C@@H](N)CC(=O)O)C(=O)Oc1ccc2c3c1O[C@H]1C(=O)CC[C@@]4(O)C(C2)[N@+](C)(CC2CC2)CC[C@]314` [Example 6, (R)—N-Methylnaltrexone 3-(N-methyl-N-(2-N-aspartinylamino))ethylcarbamate], the “pharmacokinetic profile … N-MTX” value in data set [1] is on record as “improved pharmacokinetic profile”.

On to `C[N@@+]1(CC2CC2)CC[C@]23c4c5ccc(O)c4O[C@H]2C(=O)CC[C@@]3(O)C1C5` [N-MTX, (R)—N-methylnaltrexone, reference compound], for which the “pharmacokinetic profile … N-MTX” value in data set [1] is “poor pharmacokinetic profiles”.

As to `CC(=O)NCC(=O)N[C@@H](CCCNC(=N)N)C(=O)NCCN(C)C(=O)Oc1ccc2c3c1O[C@H]1C(=O)CC[C@@]4(O)C(C2)[N@+](C)(CC2CC2)CC[C@]314` [Example 11, (R)—N-Methylnaltrexone 3-(N-methyl-N-(2-N—(N-acetyl)glycinylarginylamino))-ethylcarbamate], the “pharmacokinetic profile … N-MTX” value in data set [1] was “improved pharmacokinetic profile”.

`C=CC[N+]1(C)CC[C@]23c4c5ccc(OC(=O)N(C)CCN)c4O[C@H]2C(=O)CC[C@@]3(O)[C@H]1C5` (stereo partly shown) [Example 14, N-Methylnaloxone 3-(N-methyl-N-(2-aminoethyl))carbamate]: in data set [2], the “pharmacokinetic profile (e.g. oral bioavailability), N-MNLX” value is reported as “improved pharmacokinetic profile”.

In the case of `CN(CCNC(=O)[C@@H](N)CCCCN)C(=O)Oc1ccc2c3c1O[C@H]1C(=O)CC[C@@]4(O)C(C2)[N@+](C)(CC2CC2)CC[C@]314` [Example 9, (R)—N-Methylnaltrexone 3-(N-methyl-N-(2-N-lysinylamino))ethylcarbamate], the “detectable levels of N-MTX” value in data set [1] is listed as “did not afford detectable levels of N-MTX”.

Turning to `C[C@H](NC(=O)CN)C(=O)NCCN(C)C(=O)Oc1ccc2c3c1O[C@H]1C(=O)CC[C@@]4(O)C(C2)[N@+](C)(CC2CC2)CC[C@]314` [Example 12, (R)—N-Methylnaltrexone 3-(N-methyl-N-(2-N-glycinylalaninylamino))-ethylcarbamate], in data set [1], the “detectable levels of N-MTX” value is on record as “did not afford detectable levels of N-MTX”.
